The values below come from patent US12029793B2, “pH low insertion peptide targeted delivery of potent cytotoxic compounds” (University of Rhode Island Board of Trustees, priority 2019, dated 2024).

Side chains are listed from the residue outwards. Ends that are not written are not given here. * marks the point of attachment. mertansine = COc1cc2cc(c1Cl)N(C)C(=O)C[C@H](OC(=O)[C@H](C)N(C)C(=O)CCS*)[C@]1(C)O[C@H]1[C@H](C)[C@@H]1C[C@@](O)(NC(=O)O1)[C@H](OC)/C=C/C=C(\C)C2; SPDP = linker on the drug for disulfide conjugation to Cys

In series [1] the test system is panel of urinary bladder cancer cell lines. Description: Cell viability on panel of urinary bladder cancer cell lines (summary statements). It counts as cell-based. Conditions: amanitin alone, two hours, concentrations up to 2 μM. As for the experimental part:
The cytotoxic and highly polar agents, like amanitin, may be especially effective in topical applications.
Cancer cells were loaded in the wells of 96-well plates (5,000 cells/well) and incubated overnight. The standard growth medium was replaced with medium without FBS, at pH 6.0 or 7.4, containing increasing amounts of pHLIP-S-S-amanitin (from 0 to 2.0 μM). The pH 6.0 medium was prepared by mixing 13.3 g of dry DMEM in 1 L of deionized water. After two-hour incubation with the pHLIP-S-S-amanitin, the construct was removed and replaced with standard growth medium. […] Cell viability was assessed after 48 hours using the colorimetric CellTiter 96 AQueous One Solution Cell Proliferation Assay by absorption measurement at 490 nm (FIG. 20B presents an example of the data obtained on SCaBER squamous cell carcinoma).
There was no difference in the viability of cells incubated with media, without construct, at pH 7.4 and pH 6.0; therefore, the role of pH was excluded from the consideration. Therapeutic index (TI) was calculated according to the equation: […]
Table 8 below contains EC50 values obtained for the treatment at pH 7.4 and pH 6.0 and calculated therapeutic index, which clearly indicated a pH-dependent cell action of pHLIP-S-S-amanitin. […]

Series [2] concerns HeLa human cervical tumors. Description: Tumor weight after IP treatment with pHLIP-S-S-calicheamicin. It counts as in vivo, female athymic nude mice. Conditions: multiple IP injections once in 3-4 days, total ~1.5 mg/kg, vs non-treated control. As for the experimental part:
FIG. 21C depicts box plot presenting mean (filled squares), median, 25 and 75 percentiles (box) and standard deviation values of tumor weights after IP and IT treatment with pHLIP-S-S-calicheamicin compared to the control (non-treated) group. P-level was calculated using two-tailed test.
Calicheamicin modified with SPDP was synthesized and purified by Cfm, GmbH (FIG. 21A). Calicheamicin-SPDP was used to conjugate with Cys residue of pHLIP® peptide's membrane-inserting end to obtain pHLIP-S-S-calicheamicin. The pHLIP® peptide used in the study: […] (SEQ ID NO: 3) was prepared by solid-phase synthesis. Purification of the pHLIP-S-S-calicheamicin was conducted using RP-HPLC (the gradient: 10 mM TEAA buffer and acetonitrile), followed by lyophilization. The construct purity and identity was established by analytical RP-HPLC and surface-enhanced laser desorption/ionization time of flight (SELDI-TOF) mass spectroscopy, respectively. Construct concentration was calculated by absorbance at 280 nm for pHLIP® peptide with correction on absorbance of calicheamicin. pHLIP-S-S-calicheamicin dissolved in PBS was given as multiple intraperitoneal (IP) or intratumoral (IT) injections (once in 3-4 days) into mice bearing HeLa human cervical tumors in flank of female athymic nude mice.
The total combined dose of the multiple IP injections of pHLIP-S-S-calicheamicin was ˜1.5 mg/kg. […]

Series [3] deals with HeLa human cervical tumors. The series is described as follows: Tumor weight after treatment with pHLIP-S-S-exatecan. Format: in vivo, female athymic nude mice.
For series [4], the system named is MDA-MB-231 human triple negative breast or HeLa human cervical tumors. The series is described as follows: Tumor weight after IP or IT treatment with pHLIP-S-S-mertansine. Format: in vivo, female athymic nude mice. Conditions: for tumor weight reduction: vs non-treated control. As for the experimental part:
FIG. 19C depicts a box plot presenting mean (filled square), median, 25 and 75 percentiles (box itself) and standard deviation values of the tumor weights collected after IP and IT treatment with pHLIP-S-S-mertansine compared to the control (non-treated) group. P-level was calculated using two-tailed test.
pHLIP-S-S-mertansine dissolved in PBS and was given as multiple intraperitoneal (IP) or intratumoral (IT) injections (once in 3-4 days) into mice bearing MDA-MB-231 human triple negative breast or HeLa human cervical tumors in flanks of female athymic nude mice. The total combined dose of the multiple IP injections of pHLIP-S-S-mertansine was […], and the total combined dose of the multiple IT injections of pHLIP-S-S-mertansine was ˜2.5 mg/kg. When the tumor reached a size of about 1 cm^3 (about 1 g) in the control (non-treated) group, the animals were sacrificed; tumors were collected (FIG. 19B) and weighted (FIG. 19C).
In a separate experiment, IT injections were performed, tumors disappeared and mice were left for several weeks.

As for `CC[C@H](C)[C@@H]1NC(=O)CNC(=O)[C@@H]2Cc3c([nH]c4cc(O)ccc34)[S@+]([O-])C[C@H](NC(=O)CNC1=O)C(=O)N[C@@H](CC(N)=O)C(=O)N1C[C@H](O)C[C@H]1C(=O)N[C@@H]([C@@H](C)[C@@H](O)CO)C(=O)N2` [amanitin, alpha-amanitin], the “induction of cell death” value in series [1] is given as “did not induce cell death”.
Consider “pHLIP-S-S-calicheamicin: Calicheamicin-SPDP conjugated with Cys residue of membrane-inserting end of pHLIP peptide ADDQNPWRAYLDLLFPTDTLLLDLLWCA (SEQ ID NO: 3) (ADDQNPWRAYLDLLFPTDTLLLDLLWC([SPDP-calicheamicin])A)”, for which the tumor weight reduction result in series [2] was “About 88%”.
“pHLIP-S-S-exatecan: Exatecan-SPDP conjugated with single Cys residue of membrane-inserting end of pHLIP peptide ADDQNPWRAYLDLLFPTDTLLLDLLWCA (SEQ ID NO: 3) (ADDQNPWRAYLDLLFPTDTLLLDLLWC([SPDP-exatecan])A)”: the tumor weight reduction is on record as 50-60% in series [3] (IP administration, multiple injections once in 3-4 days, vs non-treated control) and “more than 70%” in series [3] (IT administration).
For the molecule “pHLIP-S-S-mertansine: Mertansine (DM1) conjugated to membrane-inserting end of pHLIP peptide ADDQNPWRAYLDLLFPTDTLLLDLLWCA (SEQ ID NO: 3) via cleavable S-S link (ADDQNPWRAYLDLLFPTDTLLLDLLWC(mertansine)A)”, the tumor disappearance entry in series [4] (after IT administration, in some cases) is given as “tumor disappeared”. Also, in series [4] (in the course of IP or IT treatment), the signs of toxicity entry is “no signs of toxicity”. Also, the tumor weight reduction entry in series [4] (multiple IP injections once in 3-4 days, total combined dose −10 mg/kg) is reported as “About 60%”; in series [4] (multiple IT injections once in 3-4 days, total combined dose ~2.5 mg/kg), “more than 90%”. The “cases with no tumor re-growth” value in series [4] (separate experiment, IT injections, tumors disappeared, mice left for several weeks) was found to be 60%.
